Key:
Assay in all cases: relative viability (nuclei count vs DMSO), 5 days (fraction); higher = more cells survive
QS11 + Olaparib = compound: C1CC2=C(C1)C=C(C=C2)OC3=NC(=C4C(=N3)N(C=N4)CC5=CC=C(C=C5)C6=CC=CC=C6)N[C@@H](CC7=CC=CC=C7)CO [QS11] + O=C(c1cc(Cc2n[nH]c(=O)c3ccccc23)ccc1F)N1CCN(C(=O)C2CC2)CC1 [Olaparib] (partner 8 µM)
Summary of the method: (§1)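 Cells from lung cancer lines were seeded into 1536-well plates and, one day later, dosed by pin tool. Treatments were either a single drug or a fixed dose of an anchor drug with five library-drug doses (not always all listed) in √10 steps. After 5 days, nuclei were stained in a one-step fixation (final 0.05% Triton X-100, 1% formaldehyde, 1 ug/ml Hoechst) and counted on 4× images, and relative viability is the treated-to-vehicle nuclei ratio, as the median of duplicate plates.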

AZ628 + Pictilisib = compound: CC1=C(C=C(C=C1)NC(=O)C2=CC(=CC=C2)C(C)(C)C#N)NC3=CC4=C(C=C3)N=CN(C4=O)C [AZ628] + CS(=O)(=O)N1CCN(Cc2cc3nc(-c4cccc5[nH]ncc45)nc(N4CCOCC4)c3s2)CC1 [Pictilisib] (partner 1 µM)
Summary of the method: as §1

AZ628 + Pemetrexed = compound: CC1=C(C=C(C=C1)NC(=O)C2=CC(=CC=C2)C(C)(C)C#N)NC3=CC4=C(C=C3)N=CN(C4=O)C [AZ628] + Nc1nc2[nH]cc(CCc3ccc(C(=O)N[C@@H](CCC(=O)O)C(=O)O)cc3)c2c(=O)[nH]1 [Pemetrexed] (partner 0.2 µM)
Summary of the method: as §1

[1] = compound: C[As](C)SC[C@H](NC(=O)CC[C@H](N)C(=O)O)C(=O)NCC(=O)O [Darinaparsin] + CC(=O)Nc1cccc(-n2c(=O)n(C3CC3)c(=O)c3c(Nc4ccc(I)cc4F)n(C)c(=O)c(C)c32)c1 [Trametinib] (partner 0.02 µM)
Summary of the method: as §1

Cell Line	relative viability (QS11 + Olaparib; first compound 0.253 µM)	relative viability (QS11 + Olaparib; first compound 0.8 µM)	relative viability (QS11 + Olaparib; first compound 2.53 µM)	relative viability (QS11 + Olaparib; first compound 8 µM)	relative viability (AZ628 + Pictilisib; first compound 0.08 µM)	relative viability (AZ628 + Pictilisib; first compound 0.253 µM)	relative viability (AZ628 + Pictilisib; first compound 0.8 µM)	relative viability (AZ628 + Pictilisib; first compound 2.53 µM)	relative viability (AZ628 + Pictilisib; first compound 8 µM)	relative viability (AZ628 + Pemetrexed; first compound 0.08 µM)	relative viability (AZ628 + Pemetrexed; first compound 0.253 µM)	relative viability (AZ628 + Pemetrexed; first compound 0.8 µM)	relative viability (AZ628 + Pemetrexed; first compound 2.53 µM)	relative viability (AZ628 + Pemetrexed; first compound 8 µM)	relative viability ([1]; first compound 0.08 µM)	relative viability ([1]; first compound 0.8 µM)	relative viability ([1]; first compound 2.53 µM)	relative viability ([1]; first compound 8 µM)	relative viability (QS11 + Olaparib; first compound 0.08 µM)
PC-3 [JPC-3]	1.17	1.15	1.24	1.22	0.767	0.835	0.861	0.814	0.525	1.29	0.984	1.22	1.16	0.925	0.758	0.737	0.704	0.659	–
PC-14	0.339	0.249	0.272	0.38	0.617	0.627	0.738	0.808	0.237	0.136	0.121	0.105	0.105	0.0944	1.08	0.798	0.741	0.923	0.253
RERF-LC-KJ	0.975	0.885	0.822	0.593	0.573	0.633	0.612	0.513	0.487	0.475	0.474	0.464	0.508	0.467	0.933	0.933	0.93	0.817	0.988
SK-LU-1	0.442	0.466	0.356	0.452	0.429	0.375	0.534	0.467	0.373	0.603	0.973	0.885	1.01	0.66	0.625	0.401	0.382	0.521	0.354
SK-MES-1	0.677	0.717	0.75	0.804	0.337	0.372	0.28	0.327	0.329	0.867	0.915	0.844	0.91	0.59	0.558	0.521	0.551	0.61	0.672
SW 1573	0.489	0.503	0.416	0.463	0.44	0.34	0.367	0.335	0.27	0.806	0.79	0.675	0.765	0.461	0.589	0.516	0.58	0.744	0.615
UMC-11	0.41	0.268	0.329	0.395	0.976	0.805	0.845	0.752	0.76	0.818	0.799	0.79	0.763	0.814	0.781	0.643	0.729	0.704	0.324

Reference: the supplement of paper PMC10307832
